The record followed here is US7989438B2, “Therapeutic compounds” (Istituto di Ricerche di Biologia Molecolare P. Angeletti SpA, priority 2007, dated 2011).

The subject of this test is HCV subgenomic replication. Kind of test: Cell based HCV replication assay (subgenomic replicon in Huh-7 cells, NS3 Cell-ELISA). Conditions: activity ranges. The method, boiled down:
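Huh-7 cells stably carrying the I377neo/NS3-3′/wt subgenomic replicon, seeded at 10^4 cells/well in DMEM/10% FCS and exposed to inhibitor for 96 h. NS3 expression was measured by Cell-ELISA (mAb 10E5/24, alkaline phosphatase, absorbance 405/620 nm), in duplicate. IC50 was fitted to the Hill equation, with background from parental Huh-7 cells.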

Setting [1] is: Table A, Huh-7 replicon cells, 96 hours, read-out: IC50 (nM), Inhibition of HCV subgenomic replication.

The term IC50 denotes the concentration at which inhibition is half-maximal.

Like-named read-outs stand apart in the source and are kept apart here.

On to `CCN1CCN(CC)C2COc3ccccc3-c3c(C4CCCCC4)c4ccc(cc4n3C2)C(=O)NS(=O)(=O)N(C)CC1` [Example 107, (7R)-14-cyclohexyl-21,24-diethyl-18-methyl-7,8-dihydro-6H-7,11-(epiminoethanoiminoethanoiminothioiminomethano)-indolo[1,2-e][1,5]benzoxazocin-15-one 17,17-dioxide], for which the half-inhibitory concentration (IC50) (Table 1, 16 membered macrocycles, read-out: IC50* (nM), Inhibition of HCV subgenomic replication) was < 25 nM.
As for `CN1CCOCC2COc3ccccc3-c3c(C4CCCCC4)c4ccc(cc4n3C2)C(=O)NS(=O)(=O)N(C)CC1` (single isomer, unassigned) [Compound A39, (7R or 7S)-14-cyclohexyl-18,21-dimethyl-7,8-dihydro-6H-7,11-(methanooxyethanoiminoethanoiminothioiminomethano)indolo[1,2-e][1,5]benzoxazocin-15-one 17,17-dioxide], the IC50 under setting [1] was < 25 nM.
As to `COc1cccc2c1OCC1Cn3c-2c(C2CCCCC2)c2ccc(cc23)C(=O)NS(=O)(=O)N(C)CCN(Cc2cnn(C)c2)CCN1C` [Compound A29, (7R)-14-cyclohexyl-4-methoxy-18,24-dimethyl-21-[(1-methyl-1H-pyrazol-4-yl)methyl]-7,8-dihydro-6H-7,11-(epiminoethanoiminoethanoiminothioiminomethano)indolo[1,2-e][1,5]benzoxazocin-15-one 17,17-dioxide], the IC50 under setting [1] was < 25 nM.
`CN1CCNCCN(C)S(=O)(=O)NC(=O)c2ccc3c(C4CCCCC4)c4n(c3c2)C[C@@H]1COc1c(CN2CCOCC2)cccc1-4` [Example 410, (7R)-14-cyclohexyl-18,24-dimethyl-4-(morpholin-4-ylmethyl)-7,8-dihydro-6H-7,11-(epiminoethanoiminoethanoiminothioiminomethano)-indolo[1,2-e][1,5]benzoxazocin-15-one 17,17-dioxide]: the 50% inhibitory concentration (IC50) (Table 4, various macrocycles, read-out: IC50* (nM), Inhibition of HCV subgenomic replication) lay in the range of 25 to 150 nM.
On to `CC(C)N1CCCN(C)S(=O)(=O)NC(=O)c2ccc3c(C4CCCCC4)c4n(c3c2)CC(CC1)COc1ccccc1-4` (single isomer, unassigned) [Example 506, (7R) or (7S)-14-cyclohexyl-22-isopropyl-18-methyl-7,8-dihydro-6H-7,11-(ethanoiminopropanoiminothioiminomethano)indolo[1,2-e][1,5]benzoxazocin-15-one 17,17-dioxide], for which the IC50 (Table 5, various macrocycles, read-out: IC50* (nM), Inhibition of HCV subgenomic replication) is < 25 nM.
Take `CN1CCNCCN(C)S(=O)(=O)NC(=O)c2ccc3c(C4CCCCC4)c4n(c3c2)CC1COc1ccccc1-4` [Compound A15, (7S)-14-cyclohexyl-18,24-dimethyl-7,8-dihydro-6H-7,11-(epiminoethanoiminoethanoiminothioiminomethano)indolo[1,2-e][1,5]benzoxazocin-15-one 17,17-dioxide]: under setting [1], the concentration for half-maximal inhibition (IC50) lay within 150 to 500 nM.
Regarding `CN1CCN(C)C2COc3ccccc3-c3c(C4CCCCC4)c4ccc(cc4n3C2)C(=O)NS(=O)(=O)N(C)CC1` [Compound A2, (7R)-14-cyclohexyl-18,21,24-trimethyl-7,8-dihydro-6H-7,11-(epiminoethanoiminoethanoiminothioiminomethano)indolo[1,2-e][1,5]benzoxazocin-15-one 17,17-dioxide], under setting [1], the IC50 is < 25 nM.
